Patent US20160237059A1, “HETEROCYCLIC SUBSTITUTED TRIFLUOROMETHYL PYRIMIDINONES AND THEIR USE” (BAYER PHARMA AKTIENGESELLSCHAFT, priority 2013, published 2016)
pIC50: −log10 of the molar value.

How the values were obtained:
human CCR2 = biological target: T1, human CCR2 (Homo sapiens, UniProt P41597); experiment: Functional Ca2+ release test (B-1); assay type: cell-based; conditions: Chem-1 cell line transfected with human CCR2; 50% inhibition of the MCP-1 effect, MCP-1 at EC50 (about 5 nM); in some cases means of several determinations
T1 construct: host or cells: Chem-1 cell line
T1 sequence (P41597 1-360 isoform P41597-2): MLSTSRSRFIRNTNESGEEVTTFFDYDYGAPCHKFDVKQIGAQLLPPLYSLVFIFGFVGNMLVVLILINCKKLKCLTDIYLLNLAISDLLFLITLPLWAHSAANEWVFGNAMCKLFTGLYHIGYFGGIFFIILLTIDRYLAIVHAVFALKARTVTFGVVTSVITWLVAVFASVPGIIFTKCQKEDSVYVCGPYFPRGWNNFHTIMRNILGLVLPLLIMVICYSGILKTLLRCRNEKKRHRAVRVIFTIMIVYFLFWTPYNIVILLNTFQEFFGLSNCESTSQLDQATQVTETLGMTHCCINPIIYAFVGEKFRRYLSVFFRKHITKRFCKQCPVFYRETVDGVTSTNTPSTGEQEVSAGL
In short: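 Chem-1 cells expressing human CCR2, loaded with Fluo-4 for 60 min at 37° C, were preincubated 10 min with compound (10-point, 1:3.16 dilutions), then stimulated with MCP-1 at its predetermined EC50 (about 5 nM). Ca2+ release was monitored for 120 s. IC50 came from a 4-parameter Hill fit.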

murine CCR2 = biological target: T2, murine CCR2 (Mus musculus, UniProt P51683); experiment: Functional β-arrestin recruiting test with human MCP-1 (B-2a); assay type: cell-based; conditions: U2OS β-arrestin cell line transfected with murine CCR2; agonist human MCP-1 at EC50 (about 3 nM); in some cases means of several determinations
T2 construct: host or cells: U2OS β-arrestin cell line
Protocol: The antagonistic action of test substances on CCR2 was determined in a β-arrestin test. The PathHunter β-arrestin GPCR test system (DiscoveRx Corporation, Ltd.) is a cell-based functional method for detecting binding of β-arrestin to an activated receptor. The molecular basis is a […] complementation measured by the enzymatic conversion of a chemiluminescent substrate. The test cell used was a U2OS β-arrestin cell line transfected with murine CCR2 (93-0543C3, DiscoveRx Corporation, Ltd.).
The test substances were dissolved in dimethyl sulphoxide (DMSO) at a concentration of 10 mM and serially diluted with DMSO in steps of 1:3.16 for a 10-point dose/activity analysis. According to the desired test concentrations, the substances were pre-diluted in Tyrode with 2 mM CaCl2 and 0.05% BSA.
The cells, cultivated in MEM Eagle (supplemented with 10% FCS, 50 U/ml of penicillin, 50 μg/ml of streptomycin, 250 μg/ml of hygromycin and 500 μg/ml of geniticin), were sown at 2000 cells/25 μl in 384 well, μCLEAR/black cell culture plates from Greiner (#781092) and incubated at 37° C. for 24 h. The sowing medium consisted of Opti-MEM (supplemented with 1% FCS, 50 U/ml of penicillin and 50 μg/ml of streptomycin). The cells were pre-incubated for 10 min with 10 μl of the test substances diluted in buffer, and 10 μl of agonist solution [human MCP-1 (PeproTech, #300-04) in Tyrode with 0.05% BSA) were then added. The human MCP-1 was employed at the concentration which corresponds to the EC50 which had been determined in a preliminary test (usually about 3 nM). After 90 min of incubation at 37° C., the solution was removed, and recruitment of β-arrestin to CCR2 was detected with the aid of the PathHunter detection reagent (93-001, DiscoveRx Corporation, Ltd.) according to the instructions of the manufacturer. Luminescence was measured after an incubation time of 60 min using a proprietary luminescence imaging measuring instrument. The molar concentration of the test substance which caused 50% inhibition of the MCP-1 effect (IC50) was determined using a 4-parameter logistic function (Hill function).

T2 sequence (P51683 whole entry): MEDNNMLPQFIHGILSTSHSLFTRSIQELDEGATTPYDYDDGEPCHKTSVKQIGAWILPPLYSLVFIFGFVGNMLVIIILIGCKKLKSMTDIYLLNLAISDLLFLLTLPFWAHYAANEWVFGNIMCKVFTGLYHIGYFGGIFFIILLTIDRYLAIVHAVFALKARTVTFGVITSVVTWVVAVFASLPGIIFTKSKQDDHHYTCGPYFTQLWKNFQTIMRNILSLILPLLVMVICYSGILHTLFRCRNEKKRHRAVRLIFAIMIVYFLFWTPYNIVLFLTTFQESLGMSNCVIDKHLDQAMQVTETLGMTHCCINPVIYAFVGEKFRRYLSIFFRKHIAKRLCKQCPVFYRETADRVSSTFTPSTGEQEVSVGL

## Nc1nc[nH]c1-c1nc(C(F)(F)F)c(Oc2ccc(Cl)c(Cl)c2)c(=O)[nH]1 [Example 64, 2-(4-amino-1H-imidazol-5-yl)-5-(3,4-dichlorophenoxy)-6-(trifluoromethyl)pyrimidin-4(3H)-one]
Human CCR2
  pIC50: 6.49
Murine CCR2
  pIC50: 5.19

## O=c1[nH]c(-c2cn[nH]c2)nc(C(F)(F)F)c1Oc1ccc(Cl)c(Cl)c1 [Example 66, 5-(3,4-dichlorophenoxy)-2-(1H-pyrazol-4-yl)-6-(trifluoromethyl)pyrimidin-4(3H)-one]
Human CCR2
  pIC50: 8.36
Murine CCR2
  pIC50: 6.96

## Cn1ncc(-c2nc(C(F)(F)F)c(Oc3ccc(Cl)c(C(F)(F)F)c3)c(=O)[nH]2)c1N [Example 67, 2-(5-amino-1-methyl-1H-pyrazol-4-yl)-5-[4-chloro-3-(trifluoromethyl)phenoxy]-6-(trifluoromethyl)pyrimidin-4(3H)-one]
Human CCR2
  pIC50: 8.08
Murine CCR2
  pIC50: 6.82

## Cn1ncc(-c2nc(C(F)(F)F)c(Oc3ccc(Cl)c(Cl)c3)c(=O)[nH]2)c1N [Example 68, 2-(5-amino-1-methyl-1H-pyrazol-4-yl)-5-(3,4-dichlorophenoxy)-6-(trifluoromethyl)pyrimidin-4(3H)-on]
Human CCR2
  pIC50: 7.57
Murine CCR2
  pIC50: 6.51

## Nc1nc[nH]c1-c1nc(C(F)(F)F)c(Oc2ccc(Cl)c(C(F)(F)F)c2)c(=O)[nH]1 [Example 69, 2-(4-amino-1H-imidazol-5-yl)-5-[4-chloro-3-(trifluoromethyl)phenoxy]-6-(trifluoromethyl)pyrimidin-4(3H)-one]
Human CCR2
  pIC50: 6.89
Murine CCR2
  pIC50: 5.96

## O=c1[nH]c(-c2cc[nH]n2)nc(C(F)(F)F)c1Cc1ccc(Cl)c(C(F)(F)F)c1 [Example 72, 5-[4-chloro-3-(trifluoromethyl)benzyl]-2-(1H-pyrazol-3-yl)-6-(trifluoromethyl)pyrimidin-4(3H)-one]
Human CCR2
  pIC50: 9.15
Murine CCR2
  pIC50: 7.72

## CC(C)c1nc(-c2nc(C(F)(F)F)c(Oc3ccc(Cl)c(Cl)c3)c(=O)[nH]2)no1 [Example 80, 5-(3,4-Dichlorophenoxy)-2-[5-(propan-2-yl)-1,2,4-oxadiazol-3-yl]-6-(trifluoromethyl)pyrimidin-4(3H)-one x N,N-diisopropylethylamine]
Human CCR2
  pIC50: 7.49
Murine CCR2
  pIC50: 6.80

## COCc1nc(-c2nc(C(F)(F)F)c(Oc3ccc(Cl)c(Cl)c3)c(=O)[nH]2)no1 [Example 81, 5-(3,4-dichlorophenoxy)-2-[5-(methoxymethyl)-1,2,4-oxadiazol-3-yl]-6-(trifluoromethyl)pyrimidin-4(3H)-one x N,N-diisopropylethylamine]
Human CCR2
  pIC50: 7.72
Murine CCR2
  pIC50: 6.96

## O=c1[nH]c(-c2noc(C3CC3)n2)nc(C(F)(F)F)c1Oc1ccc(Cl)c(Cl)c1 [Example 82, 2-(5-cyclopropyl-1,2,4-oxadiazol-3-yl)-5-(3,4-dichlorophenoxy)-6-(trifluoromethyl)pyrimidin-4(3H)-one x N,N-diisopropylethylamine]
Human CCR2
  pIC50: 7.72
Murine CCR2
  pIC50: 6.82

## O=c1[nH]c(-c2noc(C(F)(F)F)n2)nc(C(F)(F)F)c1Oc1ccc(Cl)c(Cl)c1 [Example 84, 5-(3,4-Dichlorophenoxy)-6-(trifluoromethyl)-2-[5-(trifluoromethyl)-1,2,4-oxadiazol-3-yl]pyrimidin-4(3H)-one]
Human CCR2
  pIC50: 8.04
Murine CCR2
  pIC50: 7.07

## N=c1[nH]c(-c2nc(C(F)(F)F)c(Oc3ccc(Cl)c(Cl)c3)c(=O)[nH]2)no1 [Example 85, 5-(3,4-Dichlorophenoxy)-2-(5-imino-4,5-dihydro-1,2,4-oxadiazol-3-yl)-6-(trifluoromethyl)pyrimidin-4(3H)-one]
Human CCR2
  pIC50: 7.51
Murine CCR2
  pIC50: 7.02

## O=c1[nH]c(-c2nc(C(F)(F)F)c(Oc3ccc(Cl)c(Cl)c3)c(=O)[nH]2)ns1 [Example 86, 5-(3,4-Dichlorophenoxy)-2-(5-oxo-4,5-dihydro-1,2,4-thiadiazol-3-yl)-6-(trifluoromethyl)pyrimidin-4(3H)-one]
Human CCR2
  pIC50: 8.11
Murine CCR2
  pIC50: 7.00

## CC1(C)NC(c2nc(C(F)(F)F)c(Oc3ccc(Cl)c(C(F)(F)F)c3)c(=O)[nH]2)=NO1 [Example 87, 5-[4-Chloro-3-(trifluoromethyl)phenoxy]-2-(5,5-dimethyl-4,5-dihydro-1,2,4-oxadiazol-3-yl)-6-(trifluoromethyl)pyrimidin-4(3H)-one]
Human CCR2
  pIC50: 7.85
Murine CCR2
  pIC50: 7.27

## O=C(O)c1cc(O)n(-c2nc(C(F)(F)F)c(Cc3ccc(Cl)c(Cl)c3)c(=O)[nH]2)n1 [Example 88, 1-[5-(3,4-Dichlorobenzyl)-6-oxo-4-(trifluoromethyl)-1,6-dihydropyrimidin-2-yl]-5-hydroxy-H-pyrazole-3-carboxylic acid]
Human CCR2
  pIC50: 7.74
Murine CCR2
  pIC50: 5.21

## O=c1[nH]nc(Cc2nc(C(F)(F)F)c(Cc3ccc(Cl)c(Cl)c3)c(=O)[nH]2)o1 [Example 89, 5-(3,4-Dichlorobenzyl)-2-[(5-oxo-4,5-dihydro-1,3,4-oxadiazol-2-yl)methyl]-6-(trifluoromethyl)pyrimidin-4(3H)-one]
Human CCR2
  pIC50: 7.96
Murine CCR2
  pIC50: 6.43

## O=c1[nH]nc(Cc2nc(C(F)(F)F)c(Cc3ccc(Cl)c(Cl)c3)c(=O)[nH]2)[nH]1 [Example 90, 5-(3,4-Dichlorobenzyl)-2-[(5-oxo-4,5-dihydro-1H-1,2,4-triazol-3-yl)methyl]-6-(trifluoromethyl)pyrimidin-4(3H)-one]
Human CCR2
  pIC50: 7.24
Murine CCR2
  pIC50: 6.21

## Cc1noc(Cc2nc(C(F)(F)F)c(Cc3ccc(Cl)c(Cl)c3)c(=O)[nH]2)n1 [Example 91, 5-(3,4-Dichlorobenzyl)-2-[(3-methyl-1,2,4-oxadiazol-5-yl)methyl]-6-(trifluoromethyl)pyrimidin-4(3H)-one]
Human CCR2
  pIC50: 7.66
Murine CCR2
  pIC50: 6.57

## O=c1[nH]c(Cc2ncn[nH]2)nc(C(F)(F)F)c1Cc1ccc(Cl)c(Cl)c1 [Example 92, 5-(3,4-dichlorobenzyl)-2-(1H-1,2,4-triazol-5-ylmethyl)-6-(trifluoromethyl)pyrimidin-4(3H)-one]
Human CCR2
  pIC50: 7.24
Murine CCR2
  pIC50: 6.66

## O=c1[nH]c(Cc2ccncc2)nc(C(F)(F)F)c1Cc1ccc(Cl)c(Cl)c1 [Example 93, 5-(3,4-dichlorobenzyl)-2-(pyridin-4-ylmethyl)-6-(trifluoromethyl)pyrimidin-4(3H)-one]
Human CCR2
  pIC50: 7.08
Murine CCR2
  pIC50: 6.43

## O=c1[nH]c(Cc2ccccn2)nc(C(F)(F)F)c1Cc1ccc(Cl)c(Cl)c1 [Example 94, 5-(3,4-dichlorobenzyl)-2-(pyridin-2-ylmethyl)-6-(trifluoromethyl)pyrimidin-4(3H)-one]
Human CCR2
  pIC50: 7.05
Murine CCR2
  pIC50: 6.38

## O=c1[nH]c(Cc2ccno2)nc(C(F)(F)F)c1Cc1ccc(Cl)c(Cl)c1 [Example 96, 5-(3,4-dichlorobenzylylmethyl)-6-(trifluoromethyl)pyrimidin-4(3H)-one]
Human CCR2
  pIC50: 7.52
Murine CCR2
  pIC50: 6.80

## O=c1[nH]c(Cc2ccsc2)nc(C(F)(F)F)c1Cc1ccc(Cl)c(Cl)c1 [Example 97, 5-(3,4-dichlorobenzyl)-2-(3-thienylmethyl)-6-(trifluoromethyl)pyrimidin-4(3H)-one]
Human CCR2
  pIC50: 7.00
Murine CCR2
  pIC50: 6.31

## O=c1[nH]c(Cc2cccnc2)nc(C(F)(F)F)c1Cc1ccc(Cl)c(Cl)c1 [Example 98, 5-(3,4-dichlorobenzyl)-2-(pyridin-3-ylmethyl)-6-(trifluoromethyl)pyrimidin-4(3H)-one]
Human CCR2
  pIC50: 6.92
Murine CCR2
  pIC50: 6.34

## Cc1n[nH]c(Cc2nc(C(F)(F)F)c(Cc3ccc(Cl)c(Cl)c3)c(=O)[nH]2)n1 [Example 99, 5-(3,4-Dichlorobenzyl)-2-[(3-methyl-1H-1,2,4-triazol-5-yl)methyl]-6-(trifluoromethyl)pyrimidin-4(3H)-one]
Human CCR2
  pIC50: 7.14
Murine CCR2
  pIC50: 6.20
